How the values were obtained:
[1] = tested on: 67 molecular targets including G-protein coupled receptors, ion channel-coupled receptors, transporters, ion channels and enzymes; assay: In vitro safety evaluation, whole panel; conditions: andrographolide at a concentration of 25 μM in the herbal composition
Description: To confirm possible adverse effects, extensive in vitro studies covering a broad range of physical function-related 67 molecular targets including G-protein coupled receptors, ion channel-coupled receptors, transporters, ion channels and enzymes, were conducted. […] Interactions found in the primary assay can be indicative of in vivo side effects or safety.

[2] = tested on: phytohemagglutinin (PHA)-stimulated whole blood cell; conditions: cultivated; cited from earlier work

C=C1CC[C@@H]2[C@](C)(CO)[C@H](O)CC[C@@]2(C)[C@@H]1C/C=C1/C(=O)OC[C@H]1O [andrographolide]
side-effect in the in vitro safety evaluation [1]: no significant side-effect | formation of TNFα and β2MG [2]: increase

From patent US20060263449A1 (Advanced Gene Technology, Corp., priority 2005, published 2006)
